The numbers were not newly measured in patent US11528929B2, “Composition for treatment of overactive bladder” (priority 2019, dated 2022), which cites them from elsewhere.

For this data set the following is noted: pH at 50% bound and 50% in free form.

On to `O=C(O)CC(O)C(=O)O` (stereo not shown) [malic acid], for which the “isoelectric pH (dissociation point)” value was 3.41.
